# Source: ChEMBL document CHEMBL1124619, “Phencyclidine-like effects of tetrahydroisoquinolines and related compounds” (J Med Chem, 1989)
# Key:
# [1] = target: T1, Sigma non-opioid intracellular receptor 1 (Rattus norvegicus, UniProt Q9R0C9); test: Inhibition of [3H]- N-allylnormetazocine ([3H]NANM) binding to sigma receptor
# Rattus norvegicus [2] = species on record: Rattus norvegicus; test: (§1) Compound was tested for induction of phencyclidine (PCP) like stereotyped behavior; assay type: functional
# [3] = target: T2, Glutamate receptor ionotropic, NMDA 2C (Rattus norvegicus, UniProt Q00961); test: Inhibition of [3H]1-[1-(2-thienyl) piperidine ([3H]TCP) binding to PCP receptor
# [4] = target: Glutamate receptor ionotropic, NMDA 2C (Rattus norvegicus) (UniProt Q00961); test: as §1; assay type: functional
# [5] = target: Glutamate receptor ionotropic, NMDA 2C (Rattus norvegicus) (UniProt Q00961); test: (§2) Compound was tested for induction of phencyclidine (PCP) like ataxia behavior; assay type: functional
# [6] = target: T2, Glutamate receptor ionotropic, NMDA 2C; test: Inhibition of [3H]1-[1-(2-thienyl) piperidine ([3H]TCP) binding to phencyclidine receptor; NI = No detectable inhibition of binding at 30 uM
# [7] = target: T1, Sigma non-opioid intracellular receptor 1; test: Inhibition of [3H]- N-allylnormetazocine ([3H]-NANM) binding to sigma receptors; NI = No detectable inhibition of binding at 30 uM
# Rattus norvegicus [8] = species on record: Rattus norvegicus; test: as §2; assay type: functional
# [9] = target: T2, Glutamate receptor ionotropic, NMDA 2C; test: Inhibition of [3H]1-[1-(2-thienyl) piperidine ([3H]TCP) binding to PCP receptor; NI = No detectable inhibition of binding at 30 uM
# T1 sequence (Q9R0C9 whole entry): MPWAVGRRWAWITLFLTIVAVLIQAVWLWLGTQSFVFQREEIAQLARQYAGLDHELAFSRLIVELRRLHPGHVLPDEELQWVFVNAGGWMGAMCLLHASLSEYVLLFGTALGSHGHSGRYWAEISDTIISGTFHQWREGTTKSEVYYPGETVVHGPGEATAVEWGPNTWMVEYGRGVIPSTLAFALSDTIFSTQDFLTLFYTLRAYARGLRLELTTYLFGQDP
# T2 sequence (Q00961 whole entry): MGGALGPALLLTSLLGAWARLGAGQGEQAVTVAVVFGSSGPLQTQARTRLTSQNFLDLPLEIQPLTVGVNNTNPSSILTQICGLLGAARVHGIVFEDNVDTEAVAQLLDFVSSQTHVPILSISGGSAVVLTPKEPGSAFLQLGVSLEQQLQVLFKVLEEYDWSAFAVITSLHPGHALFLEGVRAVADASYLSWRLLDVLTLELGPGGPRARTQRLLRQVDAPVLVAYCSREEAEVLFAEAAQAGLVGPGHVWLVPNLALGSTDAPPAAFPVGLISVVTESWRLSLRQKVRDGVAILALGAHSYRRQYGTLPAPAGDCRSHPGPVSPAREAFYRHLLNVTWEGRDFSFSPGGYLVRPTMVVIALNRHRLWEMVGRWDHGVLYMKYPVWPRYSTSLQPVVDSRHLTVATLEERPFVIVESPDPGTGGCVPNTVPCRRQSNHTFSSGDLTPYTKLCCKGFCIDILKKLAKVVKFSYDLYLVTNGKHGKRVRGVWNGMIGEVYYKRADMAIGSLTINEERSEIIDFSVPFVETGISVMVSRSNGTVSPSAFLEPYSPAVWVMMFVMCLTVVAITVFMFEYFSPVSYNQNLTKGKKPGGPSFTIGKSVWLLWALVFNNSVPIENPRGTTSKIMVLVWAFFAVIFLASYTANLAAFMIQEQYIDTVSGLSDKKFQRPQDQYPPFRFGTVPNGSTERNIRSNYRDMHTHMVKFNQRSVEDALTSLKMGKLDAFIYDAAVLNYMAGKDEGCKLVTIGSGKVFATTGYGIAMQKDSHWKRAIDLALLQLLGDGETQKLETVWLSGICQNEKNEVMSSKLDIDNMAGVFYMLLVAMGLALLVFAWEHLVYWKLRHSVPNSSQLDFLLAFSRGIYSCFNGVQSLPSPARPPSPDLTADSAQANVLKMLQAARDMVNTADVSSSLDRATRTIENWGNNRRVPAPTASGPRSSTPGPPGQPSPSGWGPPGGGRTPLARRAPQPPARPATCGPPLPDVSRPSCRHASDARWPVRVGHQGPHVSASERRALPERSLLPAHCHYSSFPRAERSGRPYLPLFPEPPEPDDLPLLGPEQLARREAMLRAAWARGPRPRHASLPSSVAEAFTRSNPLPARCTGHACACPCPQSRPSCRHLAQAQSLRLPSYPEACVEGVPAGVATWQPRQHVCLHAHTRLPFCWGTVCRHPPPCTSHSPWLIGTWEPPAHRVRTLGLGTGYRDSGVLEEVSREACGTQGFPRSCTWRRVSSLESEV
# Glutamate receptor ionotropic, NMDA 2C (Rattus norvegicus), sequence (Q00961 20-1237 limits assumed): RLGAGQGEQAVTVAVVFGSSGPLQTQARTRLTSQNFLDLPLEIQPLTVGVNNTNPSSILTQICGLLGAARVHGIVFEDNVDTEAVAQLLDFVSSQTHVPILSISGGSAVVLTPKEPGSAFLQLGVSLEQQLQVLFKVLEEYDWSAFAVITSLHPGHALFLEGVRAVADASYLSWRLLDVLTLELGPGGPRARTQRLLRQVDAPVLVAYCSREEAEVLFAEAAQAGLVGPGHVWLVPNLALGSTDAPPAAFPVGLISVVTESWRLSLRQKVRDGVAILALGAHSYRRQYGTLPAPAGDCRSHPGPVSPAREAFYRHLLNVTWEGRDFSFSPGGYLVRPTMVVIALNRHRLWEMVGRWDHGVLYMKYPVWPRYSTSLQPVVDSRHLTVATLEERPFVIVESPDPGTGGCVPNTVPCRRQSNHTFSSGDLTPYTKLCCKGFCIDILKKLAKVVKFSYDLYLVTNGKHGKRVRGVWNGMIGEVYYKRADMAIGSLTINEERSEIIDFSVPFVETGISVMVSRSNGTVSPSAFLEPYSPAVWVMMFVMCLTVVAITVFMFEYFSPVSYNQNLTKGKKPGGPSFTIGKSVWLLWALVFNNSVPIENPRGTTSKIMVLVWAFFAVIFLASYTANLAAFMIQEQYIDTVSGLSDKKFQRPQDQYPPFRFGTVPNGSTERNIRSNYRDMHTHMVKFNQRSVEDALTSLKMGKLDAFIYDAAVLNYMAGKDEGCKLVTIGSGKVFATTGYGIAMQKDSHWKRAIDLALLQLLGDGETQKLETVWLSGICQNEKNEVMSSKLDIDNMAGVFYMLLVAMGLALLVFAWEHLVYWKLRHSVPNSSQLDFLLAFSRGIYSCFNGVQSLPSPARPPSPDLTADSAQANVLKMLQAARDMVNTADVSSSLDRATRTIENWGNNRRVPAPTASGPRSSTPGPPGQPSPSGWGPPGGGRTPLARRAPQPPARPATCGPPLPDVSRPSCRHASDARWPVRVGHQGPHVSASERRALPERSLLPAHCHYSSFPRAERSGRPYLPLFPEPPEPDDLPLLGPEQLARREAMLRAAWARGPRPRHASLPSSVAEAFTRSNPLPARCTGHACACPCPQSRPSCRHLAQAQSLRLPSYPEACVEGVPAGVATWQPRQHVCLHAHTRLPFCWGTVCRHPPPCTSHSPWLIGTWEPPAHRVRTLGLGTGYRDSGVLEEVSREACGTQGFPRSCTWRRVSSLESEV
Structure (SMILES),IC50 [1],also measured
CC(C)CC1NCCc2ccccc21 (stereo unspecified),5 µM,–
c1csc(C2(N3CCCCC3)CCCCC2)c1 [TENOCYCLIDINE],0.24 µM,–
c1csc(C2NCCc3ccccc32)c1 (stereo unspecified),3.8 µM,ED50 (Rattus norvegicus [2]): 54 mg/kg; IC50 [3]: 7.6 µM
c1ccc(C2NCCc3ccccc32)cc1 (stereo unspecified),–,ED50 [4]: 25 mg/kg; ED50 [5]: > 20 mg/kg
C=CCN1CCc2ccccc2C1c1ccc2ccccc2c1 (stereo unspecified),11 µM,IC50 [6]: Not Active
c1ccc(CN2CCc3ccccc3C2)cc1,7.8 µM,IC50 [6]: Not Active
CC(C)C1NCCc2ccsc21 (stereo unspecified),3.8 µM,IC50 [3]: 17 µM
c1ccc2c(c1)CCNC21CCCCC1,–,IC50 [7]: Not Active; IC50 [6]: Not Active
c1ccc(-c2cccc3c2CNCC3)cc1,2.7 µM,ED50 [4]: 28 mg/kg; ED50 [5]: 44 mg/kg
c1ccc2c(c1)CCNC2c1ccc2ccccc2c1 (stereo unspecified),10 µM,–
C=CCN1CC[C@]2(C)c3ccccc3CC1[C@@H]2C,0.05 µM,–
CN1CCc2ccccc2C1,2.7 µM,–
CC1Cc2ccccc2CN1C (stereo unspecified),2.6 µM,–
c1ccc(C2Cc3ccccc3CN2)cc1 (stereo unspecified),2.6 µM,ED50 [4]: 19 mg/kg; ED50 [5]: 18 mg/kg
CC1NCCc2ccsc21 (stereo unspecified),11 µM,IC50 [3]: > 30 µM
CC1Cc2ccccc2CN1Cc1ccccc1 (stereo unspecified),3.2 µM,–
CCN1CCc2ccccc2C1c1ccccc1 (stereo unspecified),1.3 µM,–
c1ccc2c(c1)CCNC2C1CCCCC1 (stereo unspecified),11 µM,–
CC1Cc2ccccc2C(C)N1 (stereo unspecified),15 µM,–
CC(C)C1NCCc2ccccc21 (stereo unspecified),2.5 µM,–

Structure (SMILES),IC50 [1],also measured
CCOCCN1CCc2ccccc2C1c1ccccc1 (stereo unspecified),5.4 µM,IC50 [3]: 8.2 µM
c1ccc(C2(N3CCCCC3)CCCCC2)cc1 [PHENCYCLIDINE],0.53 µM,ED50 [4]: 4.7 mg/kg; ED50 [5]: 6.5 mg/kg
C=CCN1CCc2ccsc2C1C(C)C (stereo unspecified),5 µM,IC50 [3]: 8.5 µM
COc1ccccc1-c1cccc2c1CNCC2,1.8 µM,ED50 (Rattus norvegicus [8]): 22 mg/kg; ED50 (Rattus norvegicus [2]): 20 mg/kg; IC50 [3]: 0.9 µM
CC(C)C1c2sccc2CCN1C (stereo unspecified),7.8 µM,IC50 [3]: 17 µM
Fc1ccc(C2NCCc3ccccc32)cc1 (stereo unspecified),1.8 µM,ED50 [4]: 38 mg/kg; ED50 [5]: 49 mg/kg
CN1CCc2ccccc2C1c1ccccc1 (stereo unspecified),2.9 µM,–
c1ccc(C2NCCCc3ccccc32)cc1 (stereo unspecified),–,IC50 [7]: Not Active; IC50 [6]: Not Active
COc1ccc(C2NCCc3ccccc32)cc1 (stereo unspecified),2.2 µM,IC50 [3]: 2.5 µM
Cc1ccc(C2NCCc3ccccc32)cc1 (stereo unspecified),5.6 µM,–
c1ccc(C2NCCc3ccsc32)cc1 (stereo unspecified),6.3 µM,ED50 (Rattus norvegicus [8]): > 50 mg/kg; ED50 (Rattus norvegicus [2]): > 50 mg/kg; IC50 [3]: 8.8 µM
C=CCN1CCc2ccsc2C1c1ccccc1 (stereo unspecified),20 µM,IC50 [9]: Not Active
C=CCN1CCc2ccccc2C1c1ccccc1 (stereo unspecified),1.3 µM,–
c1ccc(C2NCc3ccccc32)cc1 (stereo unspecified),> 30 µM,–
Clc1ccc(C2NCCc3ccccc32)cc1 (stereo unspecified),3.4 µM,–
CCN1CCc2ccsc2C1C(C)C (stereo unspecified),–,IC50 [7]: Not Active; IC50 [3]: 12 µM
c1ccc(C2CNCc3ccccc32)cc1 (stereo unspecified),4.2 µM,–
C=CCN1C(C)Cc2ccccc2C1C (stereo unspecified),1.6 µM,–
c1ccc(CC2NCCc3ccccc32)cc1 (stereo unspecified),0.43 µM,ED50 [4]: 26 mg/kg; ED50 [5]: 42 mg/kg
C=CCN1CCc2ccccc2C1C1CCCCC1 (stereo unspecified),3.1 µM,–
